{
  "source": "paper PMC9374667",
  "about": "(Communications Biology, 2022)",
  "key": {"TBK1 [1]": {"system": "TBK1", "assay": "RT-qPCR of Tbk1 in eWAT and BAT", "format": "in vivo", "conditions": "db/db mice, both doses of BJ", "text": "(§1) Total RNA was isolated from 3T3-L1 cells and adipose tissue homogenates using Trizol reagent (Invitrogen, Carlsbad, CA, USA). RNA concentration and purity were examined at 260/280 nm using a nanodrop spectrophotometer (NanoDrop One, Thermo Fisher Scientific, USA). The total RNA was reverse transcribed to cDNA using the EasyScript All-in-One First-Strand cDNA Synthesis SuperMix for qPCR kit (TransGen Biotech, Beijing, China). The quantitative reverse transcription polymerase chain reaction was performed using TransStart Top Green qPCR SuperMix (TransGen Biotech, Beijing, China) and an Applied Biosystems 7500 RealTime PCR System (Life Technologies, USA). Relative expression levels were normalized to gapdh expression and quantified using the 2^-ΔΔCt method. The primers were synthesized by Shanghai Sangon Biotech, and the detailed primer sequences were shown in Supplementary Table 5 in the supplementary materials."}, "Ikbke": {"system": "Ikbke", "assay": "RT-qPCR of Ikbke in eWAT and BAT", "format": "in vivo", "conditions": "db/db mice, both doses of BJ", "text": "as §1"}, "TBK1 [2]": {"target": "T1, TBK1 (Mus musculus, UniProt Q9WUN2)", "T1 sequence (Q9WUN2 1-729)": "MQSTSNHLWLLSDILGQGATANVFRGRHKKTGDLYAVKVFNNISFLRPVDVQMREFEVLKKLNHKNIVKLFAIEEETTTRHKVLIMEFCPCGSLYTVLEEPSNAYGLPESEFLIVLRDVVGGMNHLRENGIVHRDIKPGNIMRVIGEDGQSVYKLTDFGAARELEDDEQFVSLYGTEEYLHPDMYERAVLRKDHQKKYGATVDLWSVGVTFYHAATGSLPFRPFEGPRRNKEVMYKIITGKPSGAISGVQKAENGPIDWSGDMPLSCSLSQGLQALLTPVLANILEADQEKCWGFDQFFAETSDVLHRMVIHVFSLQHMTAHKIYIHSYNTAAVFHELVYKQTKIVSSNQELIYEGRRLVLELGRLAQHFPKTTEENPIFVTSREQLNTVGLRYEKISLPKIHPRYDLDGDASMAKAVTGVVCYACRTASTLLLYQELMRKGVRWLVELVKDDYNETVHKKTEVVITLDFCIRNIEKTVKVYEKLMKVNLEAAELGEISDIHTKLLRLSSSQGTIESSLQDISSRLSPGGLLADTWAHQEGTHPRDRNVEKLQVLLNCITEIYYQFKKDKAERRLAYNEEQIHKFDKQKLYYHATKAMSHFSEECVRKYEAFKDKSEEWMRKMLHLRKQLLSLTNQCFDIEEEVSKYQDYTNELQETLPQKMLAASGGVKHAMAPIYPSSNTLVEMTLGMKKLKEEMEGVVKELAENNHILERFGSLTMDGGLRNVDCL", "assay": "TBK1 activity assay in eWAT", "format": "in vivo, mice", "parameters": "The adipose tissue was ultrasound-crushed in PBS buffer solution (1:9 w/v) to prepare the tissue homogenate; from tissue; host or cells: epididymal white adipose tissue (eWAT) and brown adipose tissue (BAT) of C57BLKS WT and db/db mice", "conditions": "for the expression of TBK1 in eWAT of db/db mice: Figure 6c, individual values", "description": "The adipose tissue was ultrasound-crushed in PBS buffer solution (1:9 w/v) to prepare the tissue homogenate. The tissue homogenate was centrifuged at 5000 × g for 10 min, and the supernatant was taken for detection. Briefly, samples or standards were added to the microplates pre-coated with IKKε antibody or TBK1 antibody. Then horseradish peroxidase (HRP) labeled antibody was added and incubated at 37 °C for 60 min. After thorough washing, the 3,3′,5,5′-tetramethylbenzidine (TMB) substrate was used for color development, and the absorbance (OD value) was determined at 450 nm."}},
  "note": "“And” between values parts separate entries of the source, which are not always exact repeats. Equal values may be shown once.",
  "data": [
    {"smiles": "CC(C)Cc1ccc(C(C)C(=O)[O-])cc1.COc1ccc2cc3[n+](cc2c1OC)CCc1cc2c(cc1-3)OCO2.O.O.O.O", "note": "[BJ, berberine-ibuprofen]", "values": [
      {"measurement": "Tbk1 mRNA expression in BAT", "setting": "TBK1 [1]", "result": "had no effect"},
      {"measurement": "mRNA level of TBK1 (Tbk1) in eWAT", "setting": "TBK1 [1]", "result": "significantly reduced"},
      {"measurement": "Ikbke mRNA expression in BAT", "setting": "Ikbke", "result": "had no effect"},
      {"measurement": "mRNA level of IKKε (Ikbke) in eWAT", "setting": "Ikbke", "result": "significantly reduced"},
      {"measurement": "the expression of TBK1 in eWAT of db/db mice", "setting": "TBK1 [2]; db/db+BJ 75mg/kg", "result": "0.538 U/g and 0.576 U/g and 0.532 U/g and 0.587 U/g and 0.53 U/g"},
      {"measurement": "the expression of TBK1 in eWAT of db/db mice", "setting": "TBK1 [2]; db/db+BJ 150mg/kg", "result": "0.413 U/g and 0.391 U/g and 0.35 U/g and 0.361 U/g and 0.451 U/g and 0.379 U/g"},
      {"measurement": "TBK1 kinase activity in eWAT", "setting": "TBK1 [2]; db/db mice, both doses of BJ (75 and 150 mg/kg)", "result": "significantly reduced"}
    ]}
  ]
}
